Some results are limits rather than exact numbers.

T1 sequence (P09874 whole entry): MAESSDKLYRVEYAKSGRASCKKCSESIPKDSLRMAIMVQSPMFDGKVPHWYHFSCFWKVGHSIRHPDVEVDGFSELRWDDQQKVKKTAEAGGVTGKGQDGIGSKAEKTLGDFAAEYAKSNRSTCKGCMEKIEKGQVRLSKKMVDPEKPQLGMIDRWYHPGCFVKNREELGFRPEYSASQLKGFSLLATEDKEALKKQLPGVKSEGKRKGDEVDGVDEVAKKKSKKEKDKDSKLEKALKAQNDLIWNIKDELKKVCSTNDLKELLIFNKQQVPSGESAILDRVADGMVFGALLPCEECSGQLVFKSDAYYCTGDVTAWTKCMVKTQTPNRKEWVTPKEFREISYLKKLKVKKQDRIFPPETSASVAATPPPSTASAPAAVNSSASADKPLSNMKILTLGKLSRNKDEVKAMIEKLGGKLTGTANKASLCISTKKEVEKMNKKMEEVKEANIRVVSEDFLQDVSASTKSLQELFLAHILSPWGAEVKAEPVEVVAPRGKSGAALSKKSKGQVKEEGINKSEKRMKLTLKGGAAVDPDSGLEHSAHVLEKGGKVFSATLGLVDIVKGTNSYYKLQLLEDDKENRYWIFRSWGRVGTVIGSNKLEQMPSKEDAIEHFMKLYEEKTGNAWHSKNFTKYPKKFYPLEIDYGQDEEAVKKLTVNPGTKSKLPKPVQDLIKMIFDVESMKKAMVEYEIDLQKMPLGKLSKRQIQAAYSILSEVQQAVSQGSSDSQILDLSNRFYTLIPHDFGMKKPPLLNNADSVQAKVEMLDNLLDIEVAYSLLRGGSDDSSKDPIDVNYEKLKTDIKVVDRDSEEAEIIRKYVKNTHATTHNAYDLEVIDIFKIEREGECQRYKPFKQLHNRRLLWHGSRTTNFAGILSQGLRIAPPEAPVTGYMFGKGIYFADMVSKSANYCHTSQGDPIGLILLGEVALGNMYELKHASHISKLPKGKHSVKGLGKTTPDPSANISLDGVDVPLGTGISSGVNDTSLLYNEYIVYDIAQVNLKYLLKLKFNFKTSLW

The target of the first assay is T1, PARP1 (Homo sapiens, UniProt P09874). In words: PARP1-Tracer activity assay (FP method). Type of assay: binding. The following applies: ratio of PARP2 IC50 to PARP1 IC50, FP method. The arrangement: purchased BPS 80551. Here is the method:
The enzyme inhibition activity of the compounds against PARP1/2-Tracer was tested using the FP method. First, 100 nL of inhibitors with a final concentration of 1% DMSO were transferred to a 384-well reaction plate (Corning 4514) using Echo655. Then, 5 µL of a PARP1/2 (BPS, Cat. No. 80501/80502) enzyme solution was added to each well, followed by centrifugation at 1000 RPM for 1 min at room temperature, and the reaction was allowed to proceed for 10 min. Subsequently, 5 µL of a Tracer (ICE, Cat. No. 001315-009) solution was added to each well, followed by centrifugation at 1000 RPM for 1 min at room temperature, and the reaction was allowed to proceed for 60 min. PARP1/2 and Tracer were prepared in a buffer containing 50 mM Tris (pH 8.0), 10 mM MgCl2, 150 mM NaCl, and 0.001% Triox-100, with final concentrations of 5/10 nM and 2.5 nM, respectively. Finally, the FP signal was read using BMG (PHERAstar FSX), and the IC50 values and nonlinear regression curve fitting were obtained using GraphPad Prism software.
As to `CNC(=O)n1cc2c(n1)CN(C1CN(Cc3ccc4cc(C(F)(F)F)c(=O)[nH]c4c3)C1)C2` [Compound 24], the “PARP2/PARP 1 selectivity” value was over 200 fold. As to `CCc1nc2ccc(CN3C[C@H](N4Cc5cn(C(=O)NC)nc5C4)[C@@H]3C)cc2[nH]c1=O` [Compound 45], the “PARP2/PARP 1 selectivity” value is recorded as over 200 fold.

The next assay relates to MDA-MB-436 cells. In words: Assay on inhibitory activity for MDA-MB-436 cell proliferation (CCK-8). Type of assay: cell-based. The following applies: 168 h of incubation, CCK-8, absorbance at 450 nm. On the procedure:
MDA-MB-436 cells in a good growth state were collected into a centrifuge tube, adjusted to a cell density of 2 × 10^4 cells/mL using a complete medium (DMEM high glucose + 10% FBS + 1× insulin-transferrin-selenium (ITS-G) + 16 µg/mL reduced glutathione), and seeded in a 96-well plate (100 µL/well), and the plate was incubated overnight in a cell incubator. Compounds were added using a pipettor, such that the final concentrations of the compounds were 400 nM-0.02 nM. The wells were set in duplicate, and a control well was set. After 168 h of incubation in the cell incubator, the assay reagent CCK-8 (manufacturer: Dojindo Laboratories, Beijing; 10 µL/well) was added. After 1.5 h of incubation in the cell incubator, the absorbance values were measured at 450 nm on a PerkinElmer Envision microplate reader. […] Inhibitory activity results for DA-MB-436 cell proliferation of compounds
Compound `CCc1cc2ccc(CN3CC(N4Cc5cn(C(=O)NC(C)C)nc5C4)C3)cc2[nH]c1=O` [Compound 9] came in with an IC50 of at most 50 nM. As for `CCNC(=O)n1cc2c(n1)CN(C1CN(Cc3ccc4cc(CC)c(=O)[nH]c4c3)C1)C2` [Compound 13], the IC50 is at most 50 nM. In the case of `CCc1cc2ncc(CN3CC(N4Cc5nc(C(=O)NC)sc5C4)C3)cc2[nH]c1=O` [Compound 7], the IC50 was at most 50 nM. Take `CCc1cc2ncc(CN3CC(N4Cc5cn(C(=O)NC6CC6)nc5C4)C3)cc2[nH]c1=O` [Compound 5]: the IC50 was at most 50 nM. Consider `CCc1cc2ccc(CN3CC(N4Cc5cn(C(=O)NC6CC6)nc5C4)C3)cc2[nH]c1=O` [Compound 4], for which the IC50 was at most 50 nM. Regarding `CCc1cc2c(F)cc(CN3CC(N4Cc5cn(C(=O)NC)nc5C4)C3)cc2[nH]c1=O` [Compound 16], the IC50 was at most 50 nM.

As to `CNC(=O)n1cc2c(n1)CN(C1CN(Cc3ccc4c5c(c(=O)[nH]c4c3)CCC5)C1)C2` [Compound 15], the IC50 is at most 50 nM. Still for that read-out and setting: the figure for `O=C(NC1CC1)n1cc2c(n1)CN(C1CN(Cc3ccc4cc(C5CC5)c(=O)[nH]c4c3)C1)C2` [Compound 11] is at most 50 nM; for `CCc1cc2ncc(CN3CC(N4Cc5cn(C(=O)NC)nc5C4)C3)cc2[nH]c1=O` [Compound 10] it is at most 50 nM; for `CNC(=O)n1cc2c(n1)CN([C@@H]1CN(Cc3ccc4cc(C5CC5)c(=O)[nH]c4c3)[C@H]1C)C2` [Compound 43] it is at most 50 nM. For `CCc1cc2ccc(CN3CC(N4Cc5cn(C(=O)NC)nc5C4)C3)cc2[nH]c1=O` [Compound 1], the IC50 was at most 50 nM.

The same assay, now with this note: Homo sapiens, MDA-MB-436; 168 h of incubation, CCK-8, absorbance at 450 nm.
For `CNC(=O)n1cc2c(n1)CN(C1CN(Cc3ccc4cc(C(F)(F)F)c(=O)[nH]c4c3)C1)C2` [Compound 24], the IC50 is at most 50 nM.

`CCc1cc2c(Cl)cc(CN3CC(N4Cc5cn(C(=O)NC)nc5C4)C3)cc2[nH]c1=O` [Compound 25] returned an IC50 of at most 50 nM.

Turning to `CNC(=O)c1nc2c(s1)CN(C1CN(Cc3ccc4cc(C(F)(F)F)c(=O)[nH]c4c3)C1)C2` [Compound 28], the IC50 is at most 50 nM. In turn, `CCc1nc2ccc(CN3C[C@H](N4Cc5cn(C(=O)NC)nc5C4)[C@@H]3C)c(F)c2[nH]c1=O` [Compound 51] showed an IC50 of at most 50 nM. In turn, `CCc1cc2ccc(CN3C[C@H](N4Cc5cn(C(=O)NC)nc5C4)[C@@H]3C)cc2[nH]c1=O` [Compound 41] displayed an IC50 of at most 50 nM. On the same count and under the same terms, next, `CNC(=O)c1cc2c(s1)CN(C1CN(Cc3ccc4cc(C(F)(F)F)c(=O)[nH]c4c3)C1)C2` [Compound 33]: at most 50 nM. `CNC(=O)n1cc2c(n1)CN(C1CN(Cc3ccc4cc(C5CC5)c(=O)[nH]c4c3)C1)C2` [Compound 2]: the IC50 was at most 50 nM. Still for that read-out and setting: next, `CNC(=O)c1nc2c(s1)CN(C1CN(Cc3ccc4cc(Cl)c(=O)[nH]c4c3)C1)C2` [Compound 27]: at most 50 nM. In the case of `CCc1cc2ccc(CN3CC(N4Cc5nc(C(=O)NC)sc5C4)C3)c(F)c2[nH]c1=O` [Compound 30], the IC50 is at most 50 nM. The same measure, in the same setting: the figure for `CCc1nc2ccc(CN3C[C@H](N4Cc5cn(C(=O)NC)nc5C4)[C@@H]3C)cc2[nH]c1=O` [Compound 45] is at most 50 nM; for `CCc1cc2ncc(CN3C[C@H](N4Cc5cn(C(=O)NC)nc5C4)[C@@H]3C)cc2[nH]c1=O` [Compound 47] it is at most 50 nM; for `CNC(=O)n1cc2c(n1)CN([C@H]1CN(Cc3ccc4cc(C(F)(F)F)c(=O)[nH]c4c3)[C@H]1C)C2` [Compound 36] it is at most 50 nM. `CCc1cc2cc(F)c(CN3CC(N4Cc5cn(C(=O)NC)nc5C4)C3)cc2[nH]c1=O` [Compound 18]: the IC50 was at most 50 nM. For the compound `CNC(=O)n1cc2c(n1)CN([C@H]1CN(Cc3ccc4cc(C5CC5)c(=O)[nH]c4c3)[C@H]1C)C2` [Compound 42], the half-inhibitory concentration (IC50) was at most 50 nM. Consider `CCc1cc2ccc(CN3CC(N4Cc5cn(C(=O)N[C@@H]6CCOC6)nc5C4)C3)cc2[nH]c1=O` [Compound 17], for which the IC50 is at most 50 nM. On to `Cc1cc2ccc(CN3CC(N4Cc5cn(C(=O)NC6CC6)nc5C4)C3)cc2[nH]c1=O` [Compound 23], for which the IC50 is at most 50 nM.

For `CCc1cc2ccc(CN3CC(N4Cc5cn(C(=O)NC)nc5C4)C3)c(F)c2[nH]c1=O` [Compound 29], the concentration for half-maximal inhibition (IC50) was at most 50 nM. On the same count and under the same terms, the figure for `CNC(=O)n1cc2c(n1)CN(C1CN(Cc3ccc4cc(C(F)(F)F)c(=O)[nH]c4c3)[C@@H]1C)C2` (single isomer, unassigned) [Compound 35] is at most 50 nM; for `CNC(=O)n1cc2c(n1)CN(C1CN(Cc3ccc4c(c3)[nH]c(=O)n3cccc43)C1)C2` [Compound 34] it is at most 50 nM; for `CNC(=O)n1cc2c(n1)CN(C1CN(Cc3ccc4cc(Cl)c(=O)[nH]c4c3)C1)C2` [Compound 26] it is at most 50 nM.

In the case of `CNC(=O)n1cc2c(n1)CN(C1CN(Cc3ccc4c(C)c(C(F)(F)F)c(=O)[nH]c4c3)C1)C2` [Compound 50], the IC50 is at most 50 nM. `CNC(=O)c1nc2c(s1)CN(C1CN(Cc3ccc4cc(C5CC5)c(=O)[nH]c4c3)C1)C2` [Compound 31] displayed an IC50 of at most 50 nM. The compound `CCc1cc2ccc(CN3CC(N4Cc5nc(C(=O)NC)sc5C4)C3)cc2[nH]c1=O` [Compound 19] displayed an IC50 of at most 50 nM.

On to `CNC(=O)n1cc2c(n1)CN(C1CN(Cc3ccc4cc(C5CC5)c(=O)[nH]c4c3)[C@@H]1C)C2` (single isomer, unassigned) [Compound 40], for which the IC50 was at most 50 nM. Take `CNC(=O)n1cc2c(n1)CN([C@H]1CN(Cc3ccc4c(C)c(C(F)(F)F)c(=O)[nH]c4c3)[C@H]1C)C2` [Compound 54]: the IC50 is at most 50 nM. The compound `CCc1cc2c(F)cc(CN3CC(N4Cc5cn(C(=O)NC6CC6)nc5C4)C3)cc2[nH]c1=O` [Compound 20] came in with a concentration for half-maximal inhibition (IC50) of at most 50 nM. In the case of `CNC(=O)n1cc2c(n1)CN(C1CN(Cc3ccc4cc(C)c(=O)[nH]c4c3)C1)C2` [Compound 22], the IC50 was at most 50 nM. Same read-out and setting: next, `CCc1cc2c(F)cc(CN3CC(N4Cc5nc(C(=O)NC)sc5C4)C3)cc2[nH]c1=O` [Compound 21]: at most 50 nM.

In the next assay the target is T1, PARP1. In words: Assay on PARP1 protein activity (chemiluminescence assay kit).
Conditions: not given
As to `CCc1cc2ccc(CN3C[C@H](N4Cc5cn(C(=O)NC)nc5C4)[C@@H]3C)cc2[nH]c1=O` [Compound 41], the IC50 is under 10 nM. As to `CCc1cc2ncc(CN3C[C@H](N4Cc5cn(C(=O)NC)nc5C4)[C@@H]3C)cc2[nH]c1=O` [Compound 47], the IC50 was under 1 nM. `CNC(=O)n1cc2c(n1)CN([C@H]1CN(Cc3ccc4cc(C5CC5)c(=O)[nH]c4c3)[C@H]1C)C2` [Compound 42]: the IC50 is under 1 nM. Still for that read-out and setting: next, `CNC(=O)n1cc2c(n1)CN(C1CN(Cc3ccc4c(C)c(C(F)(F)F)c(=O)[nH]c4c3)C1)C2` [Compound 50]: under 1 nM. Same read-out and setting: the figure for `CNC(=O)n1cc2c(n1)CN([C@H]1CN(Cc3ccc4c(C)c(C(F)(F)F)c(=O)[nH]c4c3)[C@H]1C)C2` [Compound 54] is under 1 nM.

The values are drawn from patent EP4803520A1, “COMPOUND CONTAINING FUSED BICYCLIC RING, PHARMACEUTICAL COMPOSITION, AND USE THEREOF” (priority 2023, dated 2025).
